“And” between values parts separate entries of the source, which are not always exact repeats. Equal entries are not always repeated. “Also recorded” adds a separate entry of the source.
Columns and labels:
[1] = Cell viability / MTT assay; type: cell-based, human; details: human, S10-3 human hepatoma cells
[2] = tested on: S10-3 human hepatoma cells; test: Cell viability / MTT assay; type: cell-based; details: highest concentration tolerated by S10-3 cells, MTT, 120 h
[3] = tested on: HEV-1; test: HEV-1 subgenomic replicon Renilla luciferase assay in S10-3 cells; type: cell-based, Hepatitis E virus; details: for HEV-1 inhibition (%): subgenomic replicon, at MNTD: RBV 3.12 µM, CQ 0.06 µM, HCQ 0.78 µM, ART 23.43 µM, 48 h
[4] = tested on: HEV-1; test: ORF2 protein expression by immunofluorescence assay and western blot; type: cell-based, Hepatitis E virus; details: IFA and western blot, 72 h and 96 h post-transfection, RBV 3.1 µM, ART 23.4 µM
[5] = molecular target: T1, HEV-1 helicase (Hepatitis E virus genotype 1, UniProt P33424); test: Colorimetric ATPase assay of recombinant helicase; type: biochemical
T1 sequence (P33424 960-1204): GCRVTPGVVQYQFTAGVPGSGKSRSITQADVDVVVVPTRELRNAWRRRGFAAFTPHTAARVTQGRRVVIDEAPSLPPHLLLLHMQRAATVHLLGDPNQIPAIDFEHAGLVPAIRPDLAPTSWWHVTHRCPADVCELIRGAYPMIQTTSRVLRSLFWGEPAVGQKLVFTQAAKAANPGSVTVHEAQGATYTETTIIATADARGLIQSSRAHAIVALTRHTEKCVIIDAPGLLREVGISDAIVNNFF

[6] = molecular target: T2, HEV-1 RdRp (Hepatitis E virus genotype 1, UniProt P33424); test: Colorimetric RdRp polymerase assay; type: biochemical
T2 sequence (P33424 1199-1693 limits assumed): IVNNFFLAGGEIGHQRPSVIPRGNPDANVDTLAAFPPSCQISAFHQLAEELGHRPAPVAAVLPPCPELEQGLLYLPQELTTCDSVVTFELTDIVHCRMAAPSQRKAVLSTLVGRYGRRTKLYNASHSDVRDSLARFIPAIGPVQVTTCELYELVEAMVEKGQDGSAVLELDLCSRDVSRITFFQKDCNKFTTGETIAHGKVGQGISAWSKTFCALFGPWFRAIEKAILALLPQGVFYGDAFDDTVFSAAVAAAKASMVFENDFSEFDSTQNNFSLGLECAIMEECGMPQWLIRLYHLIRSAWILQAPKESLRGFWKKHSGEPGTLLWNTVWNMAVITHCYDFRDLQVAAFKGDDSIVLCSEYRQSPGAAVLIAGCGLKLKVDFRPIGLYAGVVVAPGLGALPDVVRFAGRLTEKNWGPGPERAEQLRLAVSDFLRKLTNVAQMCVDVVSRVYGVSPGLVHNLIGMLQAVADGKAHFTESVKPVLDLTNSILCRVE

[7] = oral administration; cited from earlier work
[8] = in silico toxicity studies, cited from earlier work

## C[C@H]1[C@H](OC(=O)CCC(=O)O)O[C@@H]2O[C@@]3(C)CC[C@H]4[C@H](C)CC[C@@H]1[C@@]24OO3 [ART, artesunate]
[1]
  CC50 at 120 h: 189 ± 14.1 µM
[2]
  MNTD, maximum nontoxic dose: 23.43 µM
[3]; CC50/EC50
  TI for HEV-1, therapeutic index (CC50/EC50): 9.68
[3]
  HEV-1 inhibition (%): > 50%
[4]
  ORF2 protein levels: decreased ORF2 levels; also recorded: reduced ORF2 expression significantly
[5]
  Reversibility of helicase inhibition: reversible
[5]; 4.8 µM ART, 100 µM ATP
  Helicase ATPase activity inhibition (%): 23%
[5]; 78 µM ART, 100 µM ATP
  Helicase ATPase activity inhibition (%): 55% and ~ 55%
[5]; ATP pretreatment assay
  Mode of inhibition of helicase ATPase: competitive inhibitor
[5]; enzyme pretreated with ART
  Mode of inhibition of helicase ATPase: noncompetitive inhibitor
[5]; helicase pre-incubated with 19.5 µM ART 30 min, 50 µM ATP
  ATPase activity (%): 62%
[5]; helicase pre-incubated with 19.5 µM ART 30 min, 100 µM ATP
  ATPase activity (%): 75%
[5]; helicase pre-incubated with ATP 30 min before 19.5 µM ART, 50 µM ATP
  ATPase activity (%): ~ 79%
[5]; helicase pre-incubated with ATP 30 min before 19.5 µM ART, 100 µM ATP
  ATPase activity (%): 86%
[6]; 4.8 µM ART
  RdRp polymerase activity inhibition (%): 38%
[6]; 78 µM ART
  RdRp polymerase activity inhibition (%): 40%
[7]
  Elimination half-life: 21 to 72 min
  Tmax: less than one hour
[8]; if used in high doses for a long time
  Mutagenic, tumorigenic and hepatotoxic potential: moderately mutagenic, tumorigenic, and hepatotoxic
[8]
  Risk of reproductive or developmental toxicity: no risk

## NC(=O)c1ncn([C@@H]2O[C@H](CO[P@@](=O)(O)O[P@](=O)(O)OP(=O)(O)O)[C@@H](O)[C@H]2O)n1 [RTP, Ribavirin triphosphate]
[1]
  CC50 at 120 h: 169 ± 1.6 µM
[2]
  MNTD, maximum nontoxic dose: 7.8 µM
[5]; 3.5 µM RTP, 100 µM ATP
  Helicase ATPase activity inhibition (%): 22%
[6]; read-out: RdRp polymerase activity inhibition (%), 28 µM RTP (maximum)
  inhibition at 28 µM: 28%

## NC(=O)c1ncn([C@@H]2O[C@H](CO)[C@@H](O)[C@H]2O)n1 [RBV, ribavirin]
[1]
  CC50 at 120 h: 39 ± 5.9 µM
[2]
  MNTD, maximum nontoxic dose: 3.12 µM
[4]
  ORF2 protein levels: decreased ORF2 levels; also recorded: reduced ORF2 expression significantly

## CCN(CCO)CCCC(C)Nc1ccnc2cc(Cl)ccc12 (stereo not shown) [HCQ, hydroxychloroquine]
[2]
  MNTD, maximum nontoxic dose: 0.78 µM

## CCN(CC)CCCC(C)Nc1ccnc2cc(Cl)ccc12 (stereo not shown) [CQ, chloroquine]
[1]
  CC50 at 120 h: 4.77 ± 0.74 µM
[2]
  MNTD, maximum nontoxic dose: 0.06 µM
[3]
  HEV-1 inhibition (%): 23 ± 2%

From article PMC10141844 (Archives of Virology, 2023)
